Measurements taken from patent publication US20250049791A1, “Synthesis of MEK7 Inhibitors and methods of Use Thereof” (Northwestern University, priority 2023, published 2025).
Read-outs that look alike come from different tables or passages of the source.

Legend:
[1] = target: T1, MEK6 (Homo sapiens, UniProt P52564); experiment: Additional selectivity assay, MEK6 (FIG. 9); format: binding
T1 sequence (P52564 1-334): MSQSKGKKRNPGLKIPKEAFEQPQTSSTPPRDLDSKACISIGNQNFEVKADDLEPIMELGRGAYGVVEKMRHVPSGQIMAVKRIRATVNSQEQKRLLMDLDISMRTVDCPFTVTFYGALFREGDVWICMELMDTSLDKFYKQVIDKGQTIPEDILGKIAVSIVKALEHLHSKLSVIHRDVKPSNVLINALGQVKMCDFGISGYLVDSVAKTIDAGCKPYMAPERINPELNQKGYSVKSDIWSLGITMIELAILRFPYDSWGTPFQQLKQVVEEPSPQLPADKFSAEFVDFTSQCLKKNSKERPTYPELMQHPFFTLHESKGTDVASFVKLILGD

[2] = target: T2, MEK5 (Homo sapiens, UniProt Q13163); experiment: Additional selectivity assay, MEK5 (FIG. 9); format: binding
T2 sequence (Q13163 1-448): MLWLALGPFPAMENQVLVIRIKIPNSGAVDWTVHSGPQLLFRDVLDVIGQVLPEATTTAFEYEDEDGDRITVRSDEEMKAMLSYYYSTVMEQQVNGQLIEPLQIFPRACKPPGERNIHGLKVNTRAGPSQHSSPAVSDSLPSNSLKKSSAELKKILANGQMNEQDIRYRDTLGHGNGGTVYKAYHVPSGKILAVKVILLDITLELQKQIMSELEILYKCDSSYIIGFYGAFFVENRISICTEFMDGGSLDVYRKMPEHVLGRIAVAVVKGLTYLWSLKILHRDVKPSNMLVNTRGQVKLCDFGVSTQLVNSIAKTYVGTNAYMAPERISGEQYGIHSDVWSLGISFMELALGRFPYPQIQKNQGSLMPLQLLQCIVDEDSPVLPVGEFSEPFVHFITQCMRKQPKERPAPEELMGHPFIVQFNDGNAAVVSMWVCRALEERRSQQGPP

[3] = target: T3, recombinant active full-length human MEK7 (Homo sapiens, UniProt O14733); experiment: ADP-Glo kinase activity assay, MEK7 with JNK1 substrate; format: biochemical; conditions: for IC50: 30 min preincubation
T3 construct: recombinant active full-length human MEK7 (Carna Biosciences); purchased Carna Biosciences
T3 sequence (O14733 1-419): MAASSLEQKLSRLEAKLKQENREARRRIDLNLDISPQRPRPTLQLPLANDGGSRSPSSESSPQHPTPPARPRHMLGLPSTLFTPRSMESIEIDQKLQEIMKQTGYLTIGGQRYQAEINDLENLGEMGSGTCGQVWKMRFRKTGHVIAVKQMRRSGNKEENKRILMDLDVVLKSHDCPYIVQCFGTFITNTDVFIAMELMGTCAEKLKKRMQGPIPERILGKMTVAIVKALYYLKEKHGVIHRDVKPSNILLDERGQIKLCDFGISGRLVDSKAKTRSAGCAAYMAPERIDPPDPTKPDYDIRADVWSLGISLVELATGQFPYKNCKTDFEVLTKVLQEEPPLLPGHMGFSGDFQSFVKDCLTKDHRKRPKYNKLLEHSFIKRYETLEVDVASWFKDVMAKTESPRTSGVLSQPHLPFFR
Method: Procedure for a 5 μL Kinase reaction using the ADP-Glo Kinase Assay Kit from Promega. Staurosporine was used as the positive control, and DMSO (vehicle) was employed as the negative control. Activity of recombinant active full-length human MEK7 (Carna Biosciences) was measured with recombinant full-length human substrate JNK1 (MAPK8). Using a Mantis, a mixture of MEK7 and JNK1 was dispensed into a 384-well low volume white Proxiplate. For each well, 4 ng of MEK7 and 600 ng of JNK1 in kinase buffer (CST) were used, accounting for 1 μL of this mixture per well. Inhibitor was prepared in a DMSO solution (40 mM). A dose-response dilution was performed in a 384-well Echo transfer plate. Using an Echo Access, 10 nL of each solution was dispensed into the same 384-well low volume white Proxiplate as above. This mixture was allowed to incubate for 30 minutes at room temperature. Using a Mantis, 1 uL of an 8 μM ATP solution was added to each well, and the plate was allowed to incubate for another 1 hour at room temperature. Using the Mantis again, 4 μL of ADP Glo Reagent was dispensed into each well, and the plate was allowed to incubate for 45 min at room temperature. Finally, 9 μL of Kinase Detection Reagent was added manually to each well, and the plate was allowed to incubate for 45 minutes at room temperature. Luminescence was read on a Synergy Neo2 Plate Reader with filter cubes 3 and 114. Integration time was set to 0.20 seconds, gain set to 160, and read height set at 6 mm. All experiments were performed in triplicate on the plate, and at least in one separate technical duplicate was performed.
MEK4 selectivity was performed in the same manner with activated MEK4 (Carna Biosciences). Here, p-38α was employed as the kinase substrate in lieu of JNK1 due to the availability of reagents. […] To probe the ATP-competitive nature of 25, this compound was subjected to a similar assay forgoing the 30 minute incubation time described above (STAR Protocols 2021, 2, 100717). The results are tabulated below in compound characterization. Potency determined by duplicate of triplicates corresponded to a IC50 value, which is in line with the ratio difference observed among other covalent inhibitors (for examples, see Cell Chem. Biol. 2020, 27, 1285).

[4] = target: T4, MEK3 (Homo sapiens, UniProt P46734); experiment: Additional selectivity assay, MEK3 (FIG. 9); format: binding
T4 sequence (P46734 1-347): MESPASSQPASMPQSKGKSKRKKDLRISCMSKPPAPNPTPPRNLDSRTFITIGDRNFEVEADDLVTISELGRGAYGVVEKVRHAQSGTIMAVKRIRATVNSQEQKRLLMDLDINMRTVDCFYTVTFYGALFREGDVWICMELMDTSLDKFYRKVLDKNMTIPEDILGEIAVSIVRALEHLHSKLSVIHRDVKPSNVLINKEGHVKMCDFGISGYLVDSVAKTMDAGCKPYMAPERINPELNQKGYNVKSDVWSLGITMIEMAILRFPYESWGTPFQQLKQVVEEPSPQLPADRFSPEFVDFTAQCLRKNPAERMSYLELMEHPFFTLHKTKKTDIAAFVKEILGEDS

[5] = PAMPA permeability; format: in vitro ADME; conditions: FIG. 12
[6] = overall value of two experiments, read-out: MEK7 IC50
[7] = MEK7 IC50, first experiment (IC50±SEM, n=3), first value in brackets
[8] = MEK7 IC50, second experiment (IC50±SEM, n=3), second value in brackets

With `CNc1cc(Oc2cccc(NC(=O)CCl)c2)ncn1` [Compound 8, 2-chloro-N-(3-((6-(methylamino)pyrimidin-4-yl)oxy)phenyl)acetamide] the “activity/binding at MEK6” value [1] was “inactive”, the “activity/binding at MEK5” value [2] was “inactive” and the IC50 [3, 6] was 60 nM. It also gave an IC50 ([3]; read-out: MEK7 IC50) of 60 nM, an IC50 [3, 7] of 87 ± 41 nM and an IC50 [3, 8] of 34 ± 42 nM. The “activity/binding at MEK3” value [4] was “inactive” and the PAMPA cell permeability [5] was “highly membrane permeable”.

With `C=CC(=O)Nc1cccc(Oc2cc(NC)ncn2)c1` [Compound 9, N-(3-((6-(methylamino)pyrimidin-4-yl)oxy)phenyl) acrylamide] the “activity/binding at MEK6” value [1] was “inactive”, the “activity/binding at MEK5” value [2] was “inactive” and the “in vitro activity against MAP2K7, in words” value ([3]; ADP-Glo assay, comparison within the series) was “less active than compound 8”. For the same molecule, the IC50 [3, 7] was 230 ± 190 nM, the IC50 [3, 8] was 610 ± 400 nM and the “activity/binding at MEK3” value [4] was “inactive”.

With `O=C(CCl)Nc1cccc(Oc2cc(NCc3cc(F)cc(F)c3)ncn2)c1` [Compound 26, 2-chloro-N-(3-((6-((3,5-difluorobenzyl)amino)pyrimidin-4-yl)oxy)phenyl)acetamide] the IC50 [3, 6] was 74 nM and the IC50 [3, 7] was 110 nM.
